Reference: PubChem BioAssay (NCI)
“And” between values parts separate entries of the source, which are not always exact repeats. Equal values may be shown once.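 Interpolation was linear, between the two tested concentrations surrounding the appropriate level; five concentrations were tested over 48 hours in 96-well plates. Here, GI50 denotes the concentration required for 50% inhibition of growth. TGI marks complete inhibition of growth.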

Assays:
Assay in all cases: NCI tumour cell line growth inhibition, 48 h
RPMI-8226 leukemia = system: RPMI-8226 leukemia
IGROV1 ovarian = system: IGROV1 ovarian
K-562 leukemia = system: K-562 leukemia
T-47D breast = system: T-47D breast
SK-MEL-5 melanoma = system: SK-MEL-5 melanoma
HS 578T breast = system: HS 578T breast
UO-31 renal = system: UO-31 renal
SNB-75 CNS = system: SNB-75 CNS
DU-145 prostate = system: DU-145 prostate
CCRF-CEM leukemia = system: CCRF-CEM leukemia

| Compound | TGI (RPMI-8226 leukemia) | TGI (IGROV1 ovarian) | TGI (K-562 leukemia) | TGI (T-47D breast) [µM] | TGI (SK-MEL-5 melanoma) | TGI (HS 578T breast) [µM] | TGI (UO-31 renal) | TGI (SNB-75 CNS) | TGI (DU-145 prostate) [µM] | TGI (CCRF-CEM leukemia) | GI50 (RPMI-8226 leukemia) [nM] | GI50 (HS 578T breast) [µM] | GI50 (UO-31 renal) [µM] | GI50 (DU-145 prostate) [µM] | GI50 (CCRF-CEM leukemia) | GI50 (IGROV1 ovarian) [nM] | GI50 (K-562 leukemia) [nM] | GI50 (T-47D breast) [nM] | GI50 (SK-MEL-5 melanoma) [nM] | GI50 (SNB-75 CNS) [nM] |
| --- | --- | --- | --- | --- | --- | --- | --- | --- | --- | --- | --- | --- | --- | --- | --- | --- | --- | --- | --- | --- |
| O=c1ccc2cc(O)c(O)cc2o1 | > 100 µM | > 100 µM | > 100 µM | > 100 | > 100 µM | > 100 | > 100 µM | > 100 µM | > 100 | > 100 µM |  |  |  |  |  |  |  |  |  |  |
| NC(=O)NN=C(CS)CS | > 100 µM | > 100 µM | > 100 µM |  | 32.8 µM |  | 54.4 µM | > 75.3 µM |  | > 100 µM |  |  |  |  |  |  |  |  |  |  |
| CN(C)c1ccc(/C=N\NC(=O)CSCC(=O)N/N=C/c2ccc(N(C)C)cc2)cc1 | > 100 µM | > 100 µM | > 100 µM | 88.6 | > 100 µM | 82.1 | > 100 µM | > 100 µM | > 100 | > 100 µM |  |  |  |  |  |  |  |  |  |  |
| N#CC(c1ccccc1)c1nc2ccc(=N)cc-2n(O)c1C(C#N)c1ccccc1 (configuration not stated) |  | > 100 µM | > 100 µM |  |  |  | > 100 µM |  |  | > 100 µM |  |  |  |  |  |  |  |  |  |  |
| CC(=O)C(O)N1C(=O)C=CC1=O (configuration not stated) | 35 µM and 5.64 µM |  |  | > 25 |  |  |  |  |  |  | 12800 | 15800 | 2260 | 11700 | > 25000 nM and 2740 nM |  |  |  |  |  |
| O=C1c2c(c3c4ccccc4[nH]c3c3ccc4ccccc4c23)C(=O)N1CCN1CCCCC1 | 4.7 µM | 4.29 µM | 6.34 µM | 7.87 | 3.1 µM | 5.71 |  | 22.6 µM | 14.5 | 11.3 µM | 1780 | 2.04 |  | 1.05 | 272 nM | 1250 | 1330 | 1610 | 1510 | 2200 |
| COc1ccc(N2C(=O)C3c4[nH]c5c(C)cccc5c4C4CCC(C(C)(C)C)CC4C3C2=O)cc1 (configuration not stated) | > 10 µM | > 10 µM | > 10 µM | > 10 | > 10 µM | > 10 | > 10 µM | > 10 µM | > 10 | > 10 µM |  |  |  |  |  |  |  |  |  |  |
| NC(=O)CCCC(NCc1c2ccccc2nc2ccccc12)C(=O)O (configuration not stated) | 93.6 µM | > 100 µM | > 100 µM |  | > 100 µM |  |  | > 100 µM |  | 71.6 µM |  |  |  |  |  |  |  |  |  |  |
| CN(C)CCCNc1ccc2ncn3c4ccccc4c(=O)c1c23 | 26.9 µM | 33 µM | 24.1 µM |  |  |  | 52.3 µM | 92.2 µM |  | 23.4 µM |  |  |  |  |  |  |  |  |  |  |
| CN1CCCCC1CCN1CCCCC1 (configuration not stated) | > 100 µM | > 100 µM | > 100 µM | > 100 | > 100 µM | > 100 | > 100 µM | > 100 µM | > 100 |  |  |  |  |  |  |  |  |  |  |  |
| CC12CCC(C(=O)OC1=O)C(C)(C)O2 (configuration not stated) | > 100 µM | > 100 µM | > 100 µM | > 100 | > 100 µM | > 100 | > 100 µM | > 100 µM | > 100 | > 100 µM |  |  |  |  |  |  |  |  |  |  |
| CC1C(O)C2(Oc3cc4c(c5c3[C@@H](CC5O)[C@H]2C)CCC2Cc3nc5c(nc3C[C@@]42C)CC2CCC3C4=C[C@H]6O[C@@]7(O[C@@](C)(CO)C[C@@H]7O)C(C)[C@@]6(O)[C@]4(C)[C@@H](O)CC3[C@]2(C)C5)OC1(C)C (some centres not stated) | > 3.67 µM | 0.894 µM | 0.367 µM |  | > 3.67 µM |  | 3.14 µM | 0.0842 µM |  | 0.194 µM |  |  |  |  |  |  |  |  |  |  |
| O=NC1C(Cl)C2CC1C1C(Br)C(Br)CC21 (configuration not stated) | 68.6 µM | > 100 µM | > 100 µM | > 100 | > 100 µM | > 100 | > 100 µM | > 100 µM | > 100 | > 100 µM |  |  |  |  |  |  |  |  |  |  |
| Cc1c2cc[n+](CCN3CCCCC3)cc2c(C)c2c1[nH]c1ccc(O)cc12 | 23.3 µM and 11.6 µM | 38.1 µM and 30.4 µM | 25.3 µM and 14.8 µM | 12.1 | 31.2 µM and 11.1 µM | > 100 | 69.9 µM and 61.2 µM | 5.4 µM and 18.7 µM | 11.5 | 17.4 µM and > 100 µM | 1740 |  | 9.25 |  | 1800 nM | 4430 | 2330 |  |  | 2700 |
| C/C=C/[P+](c1ccccc1)(c1ccccc1)c1ccccc1 | 0.898 µM | 18.1 µM | 28.2 µM | 1.43 | 9.54 µM | 3.17 | 88.6 µM | 19.9 µM | 18.6 | > 42.4 µM |  |  |  |  |  |  |  |  |  |  |
| COc1ccc(-c2c3c(nc4nc(SCCc5ccccc5)nc(N)c24)CCCC3)cc1OC | > 100 µM | > 100 µM | > 100 µM | > 100 | > 100 µM | > 100 | > 100 µM | > 100 µM | > 100 | > 100 µM |  |  |  |  |  |  |  |  |  |  |
| Cc1cc(NCc2cc(Nc3ccnc4cc(Cl)ccc34)ccc2F)nc(N2CCCC2)n1 |  | 4.2 µM |  |  | 3.19 µM | 4.6 | 2.86 µM |  | 4.46 | > 100 µM |  | 1.61 | 1.27 | 1.94 | 353 nM | 1690 |  |  | 1760 |  |
| Cc1ccc(S(=O)(=O)NCCSCCNS(=O)(=O)c2ccc(C)cc2)cc1 |  |  | > 100 µM | > 100 | > 100 µM | > 100 | > 100 µM | > 100 µM | > 100 | > 100 µM |  |  |  |  |  |  |  |  |  |  |
| CN(C)CCNc1nc(-c2ccc3ccccc3c2)nc2nc[nH]c12 | > 100 µM | 15.4 µM | > 100 µM | 29.7 | 25 µM | 22.8 | 12.9 µM | 4.44 µM | 23.7 | 52.9 µM |  |  |  |  |  |  |  |  |  |  |
| Cc1sc(Cc2ccccc2)nc1-c1ccc(N)cc1 | 71.4 µM | 89.8 µM | > 100 µM |  | 35.6 µM | > 100 | > 100 µM |  |  | 72.8 µM |  |  |  |  |  |  |  |  |  |  |
| COc1ccc([C@@H]2ON(C)[C@H]3CN(C)C(=O)[C@@H]23)cc1 | > 100 µM | > 100 µM | > 100 µM | > 100 | > 100 µM | > 100 | > 100 µM | > 100 µM | > 100 | > 100 µM |  |  |  |  |  |  |  |  |  |  |
